In patent publication US20200375929A1, “METHODS AND COMPOSITIONS FOR THE TREATMENT OF DISEASES ASSOCIATED WITH CANCER, INFLAMMATION, OR IMMUNE RESPONSE” (Washington University, priority 2017, published 2020):
Entries after “also recorded” stand apart in the source; their conditions may differ.

Assays:
[1] = system: IκBζ; experiment: IL-17A-induced IκBζ in primary human keratinocytes (western blot); type: cell-based; conditions: DI 12 h, IL-17A 100 ng/ml
Method: (§1) Cells were lysed in RIPA Lysis Buffer System (Santa Cruz) and heat-denatured at 95° C. for 5 min in reducing sample buffer (BioRad). Proteins were separated on 4%-20% polyacrylamide gradient gels (BioRad) and transferred onto 0.45 μm pore size PVDF membranes (Millipore). Non-specific binding was blocked with 5% skim milk (or 5% BSA when phospho-proteins were analyzed), and membranes were probed with primary antibodies specific to Nrf2 (#12721), HO-1 (#70081), IκBζ (mouse specific, #93726), IκBζ(#9244), ATF3 (#D2Y5W), IRAK1 (#4504; sensitivity of IRAK1 detection diminishes upon IRAK1 K63 ubiquitination), phospho-IKK (Ser176/180, #2697), p62/SQSTM1 (#5114), phospho-eIF2α (Ser51, #9721), eIF2α (#5324) from Cell Signaling; GAPDH (sc-25778), IκBα (sc-1643), ATF3 (sc-188), SDHA (sc-166909) from Santa Cruz; NQO1 (ab28947) from Abeam, followed by incubation with anti-rabbit-HRP (1:10,000; sc-2030) or anti-mouse-HRP (1:10,000; sc-2031) from Santa Cruz and Clarity western ECL substrate (Bio-Rad). Membranes were exposed to X-Ray films (Research Products International Corp.) and developed using SRX-101A film processor (Konica Minolta). GAPDH run on the same blot was used as loading control. After scanning of original films image brightness of some blots was adjusted and bands were cropped using ImageJ. Densitometry was performed using ImageJ. […]

[2] = system: IκBζ; experiment: IL-17A-induced IκBζ in primary mouse keratinocytes (western blot); type: cell-based; conditions: DI 12 h, IL-17A 100 ng/ml
Method: as §1

[3] = system: BMDMs; experiment: Glutathione (GSH) measurement in BMDMs; type: cell-based, mouse; conditions: DI 250 μM
Method: Total GSH concentration in cells was determined by GSH/GSSH Ratio Detection Assay Kit (Abeam) according to manufacturer protocol. Briefly, 106 BMDMs were lysed in 100 μL of 0.5% NP-40 in PBS, pH 6. Samples were deproteinized using trichloroacetic acid and neutralized by addition of 1M NaHCO3 to achieve pH 4-6. Collected extracts were diluted with supplied assay buffer and directly used for GSH measurement.

[4] = system: LY1 and LY7 (GCB) cell lines; experiment: DLBCL cell viability, resazurin assay, GCB subtype; type: cell-based; conditions: LY1 and LY7, 4 days, refreshed daily; DI 125-250 μM
[5] = target: T1, SDH (Mus musculus, UniProt Q8K2B3); experiment: SDH activity in mouse heart and liver; type: in vivo; conditions: daily DI administration i.p.
T1 construct: from tissue; host or cells: mitochondria isolated from mouse heart and liver
T1 sequence (Q8K2B3 43-664): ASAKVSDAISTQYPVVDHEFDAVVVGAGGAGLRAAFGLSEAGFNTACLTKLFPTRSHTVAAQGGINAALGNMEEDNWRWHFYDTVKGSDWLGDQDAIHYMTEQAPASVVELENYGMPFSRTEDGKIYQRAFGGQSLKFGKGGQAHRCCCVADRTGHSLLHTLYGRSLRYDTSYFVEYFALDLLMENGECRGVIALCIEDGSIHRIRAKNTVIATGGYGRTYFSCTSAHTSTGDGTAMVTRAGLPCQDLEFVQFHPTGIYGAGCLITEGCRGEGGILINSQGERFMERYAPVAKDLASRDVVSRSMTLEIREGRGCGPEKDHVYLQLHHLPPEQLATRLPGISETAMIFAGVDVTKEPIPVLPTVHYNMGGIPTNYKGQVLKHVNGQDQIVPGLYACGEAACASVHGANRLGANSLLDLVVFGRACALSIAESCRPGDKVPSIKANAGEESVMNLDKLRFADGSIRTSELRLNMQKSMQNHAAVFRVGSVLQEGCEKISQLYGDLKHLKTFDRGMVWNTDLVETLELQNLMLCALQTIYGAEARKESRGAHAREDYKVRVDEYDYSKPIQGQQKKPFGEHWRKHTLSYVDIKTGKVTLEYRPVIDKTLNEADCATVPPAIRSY
T1 sequence (Q9CQA3 31-282 partner): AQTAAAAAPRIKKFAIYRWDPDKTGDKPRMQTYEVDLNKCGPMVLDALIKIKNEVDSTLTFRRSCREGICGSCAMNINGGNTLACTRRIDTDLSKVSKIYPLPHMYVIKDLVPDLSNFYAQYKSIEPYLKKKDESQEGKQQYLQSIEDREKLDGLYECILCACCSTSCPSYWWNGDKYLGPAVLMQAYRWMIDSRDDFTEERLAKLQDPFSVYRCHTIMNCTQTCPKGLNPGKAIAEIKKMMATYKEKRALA
T1 sequence (Q9CZB0 30-169 partner): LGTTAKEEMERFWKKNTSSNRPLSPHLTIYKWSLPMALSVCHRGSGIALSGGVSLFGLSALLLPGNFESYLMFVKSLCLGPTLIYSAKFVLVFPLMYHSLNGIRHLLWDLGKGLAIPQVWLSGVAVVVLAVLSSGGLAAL
T1 sequence (Q9CXV1 57-159 partner): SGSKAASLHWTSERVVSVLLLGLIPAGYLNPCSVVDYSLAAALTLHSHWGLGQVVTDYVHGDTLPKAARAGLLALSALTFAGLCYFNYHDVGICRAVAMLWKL
Method: DI was administered to mice via the intraperitoneal route at 20 mg/500 μL sterile PBS per mouse either once per day for total length of 4 days (DI daily) or every 2 h, 3 times in total (DI overdose). In daily DI administration, last injection was 6 h before the tissue harvest, in DI overdose protocol last injection was 2 h before harvest. Mice were euthanized and heart (50 mg) and liver tissue (200 mg) were harvested, washed in PBS and processed for mitochondria isolation with Mitochondria Isolation Kit for Tissue (#89801, Thermo Scientific) according to manufacturer's instruction. For analysis of mitochondria purity cytoplasmic and mitochondrial fractions were diluted with reducing sample buffer and analyzed by western blot for SDH and GAPDH presence (see western blot analysis section). SDH activity in isolated mitochondria was analyzed using SDH Activity Colorimetric Kit (#MAK197, Sigma). Isolated mitochondria were directly resuspended in SDH Assay Buffer. In parallel, protein concentration in each sample was determined using RC/DC™ Protein Assay (Biorad) and activity was normalized to protein concentration.

With `C=C(CC(=O)OC)C(=O)OC` [DI, dimethyl itaconate] the “IL-17-induced IκBζ induction” value [1] was “inhibited”, the “IL-17-induced IκBζ induction” value [2] was “inhibited” and the GSH/GSSG ratio [3] was “substantial drop”. For the same molecule, the “cellular GSH” value [3] was “substantial drop in cellular GSH; also recorded: substantial drop of cellular GSH concentration”, the “growth / toxicity, GCB DLBCL” value [4] was “not GCB cells” and the “SDH activity in heart and liver” value [5] was “did not significantly affect SDH activity”.
